ChEMBL document CHEMBL3044592, “Synthesis, antiproliferation, and docking studies of N-phenyl-lipoamide and 8-mercapto-N-phenyloctanamide derivatives: effects of C6 position thiol moiety” (2012)

Tests used:
Assay in all cases: cells
Format in all cases: functional
Details in all cases: Homo sapiens, read-out: GI
[1] = tested on: NCI-H460
Description: Growth inhibition of Homo sapiens (human) NCI-H460 cells at 100 ug/ml by MTT assay

[2] = tested on: KB
Description: Growth inhibition of Homo sapiens (human) KB cells at 100 ug/ml by MTT assay

[3] = tested on: Bel-7402
Description: Growth inhibition of Homo sapiens (human) Bel7402 cells at 100 ug/ml by MTT assay

SMILES	inhibition of growth at 100 µg/mL [1] [%]	inhibition of growth at 100 µg/mL [2] [%]	inhibition of growth at 100 µg/mL [3] [%]
O=C(CCCCCCCS)Nc1ccccc1 [8-MERCAPTO-OCTANOIC ACID PHENYLAMIDE]	32.4	18.6	–
CC(=O)SCCCCCCCC(=O)Nc1ccccc1	82.3	77	66.3
